Each block holds one sequence with its values, some of them ahead of it.
Target: T1, MAL^TIR (Homo sapiens, UniProt P58753)
T1 construct: MAL (residues 79–221); 6xHis; made in house; host or cells: E. coli BL21 (DE3)
Assay: T‐Surf phage library (P8 and P3) selection against MAL^TIR, four rounds, NGS read counts
Type: binding
Conditions: for P8_MAL Rank (after) / P8_MAL Rank (before): P8 library; for P3_MAL Rank (after) / P3_MAL Rank (before): P3 library; for Population: P3_MAL pool: P3 T-Surf phage library, 4th round of selection against MAL TIR, share of NGS reads
In short: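 P8 and P3 T‐Surf libraries panned against plate-coated TIR domains (5 µg mL^−1), 1 h binding at RT, acid elution and TG1/helper-phage amplification per round. After four rounds, pools were PCR-barcoded and sequenced (NovaSeq, 100 bp paired-end, Phred ≥30); peptides ranked by read counts.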

[1] = P8_MAL: rank by count after grouping
[2] = P8_MAL: rank by count before grouping
[3] = selection against MAL TIR, rank by count after grouping
[4] = selection against MAL TIR, rank by count before grouping
[5] = selection against MAL, rank after grouping
[6] = selection against MAL, rank before grouping
[7] = 4R selection against MAL, rank after grouping
[8] = 4R selection against MAL, rank before grouping
[9] = selection against MAL, rank by count after grouping
[10] = selection against MAL, rank by count before grouping
[11] = P3_MAL: rank by count after grouping
[12] = P3_MAL: rank by count before grouping

T1 sequence (P58753 79-221): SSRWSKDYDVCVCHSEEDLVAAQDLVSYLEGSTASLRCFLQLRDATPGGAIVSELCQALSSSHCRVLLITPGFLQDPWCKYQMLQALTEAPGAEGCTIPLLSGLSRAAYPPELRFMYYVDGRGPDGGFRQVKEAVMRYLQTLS

Sequence: YFLHFLLFSRPNRVY
Rank (after) [1]: 438 | Rank (before) [2]: 1488

Sequence: YFLHFLLLAVRKPSI
P8_MAL Rank (after) [3]: 196 | P8_MAL Rank (before) [4]: 791

Sequence: YFLHFMLFRRRGTEYI
Rank (after) [1]: 439 | Rank (before) [2]: 1507

Sequence: YFLHFRLLSRPETEYI
P8_MAL Rank (after) [7]: 643 | P8_MAL Rank (before) [8]: 1505

Sequence: YFLHSLLISLTDPAYI
Rank (after) [1]: 452 | Rank (before) [2]: 1510

Sequence: YFLLFVLFGRSAIGSM
P8_MAL Rank (after) [9]: 713 | P8_MAL Rank (before) [10]: 1459

Sequence: YFLNFLLFSRPETDYI
Rank (after) [1]: 457 | Rank (before) [2]: 1516

Sequence: YFLQFLVFRRLGNEYV
P8_MAL Rank (after) [7]: 656 | P8_MAL Rank (before) [8]: 1513

Sequence: YFLQVRLFNLLESDDR
P8_MAL Rank (after) [7]: 600 | P8_MAL Rank (before) [8]: 1514

Sequence: YFWHALKNALAVNNDV
Population: 0.056% | Rank (after) [11]: 97 | Rank (before) [12]: 97

Sequence: YLKLGYPWCWDRRRFA
P3_MAL Rank (after) [7]: 583 | P3_MAL Rank (before) [8]: 1500

Sequence: YLKWGYPGLWDRLRFA
P3_MAL Rank (after) [3]: 212 | P3_MAL Rank (before) [4]: 1517

Sequence: YLKWGYPWFWIVCVL
Rank (after) [1]: 143 | Rank (before) [2]: 1546

Sequence: YLKWGYTRCWDRLRFA
Rank (after) [11]: 478 | Rank (before) [12]: 1518

Sequence: YLLLSVFQTIFARRTE
P8_MAL Rank (after) [3]: 238 | P8_MAL Rank (before) [4]: 800

Sequence: YNFISHLYAALQRKHVET
P3_MAL Rank (after) [3]: 253 | P3_MAL Rank (before) [4]: 754

Sequence: YNFISHLYDALHQFHSWV
Rank (after) [11]: 150 | Rank (before) [12]: 523

Sequence: YNFISHLYDTLHRNRN
P3_MAL Rank (after) [3]: 272 | P3_MAL Rank (before) [4]: 1578

Sequence: YNLISQLYEALHLNRI
P3_MAL Rank (after) [7]: 645 | P3_MAL Rank (before) [8]: 1587

Sequence: YQWRNALTAAANLRGW
P3_MAL Rank (after) [3]: 238 | P3_MAL Rank (before) [4]: 1525

Sequence: YTALTNIGFHTFLDND
P3_MAL Rank (after) [3]: 195 | P3_MAL Rank (before) [4]: 1542

Sequence: YTALTNSASHTFRGND
Rank (after) [11]: 444 | Rank (before) [12]: 1551

Sequence: YTALTNSGFHAFSDKD
Rank (after) [1]: 456 | Rank (before) [2]: 1556

Sequence: YTALTNSGFHTFLDNE
P3_MAL Rank (after) [3]: 217 | P3_MAL Rank (before) [4]: 1547

Sequence: YVFTGNLHRYLMQLGV
P3_MAL Rank (after) [5]: 536 | P3_MAL Rank (before) [6]: 1341

Other lines, results leading:

Rank (after) [1]: 137 | Rank (before) [2]: 1458
Sequence: YFLHFLLFSRPQTQYI

P8_MAL Rank (after) [5]: 565 | P8_MAL Rank (before) [6]: 1499
Sequence: YFLHFLLVSRAEAEFI

P8_MAL Rank (after) [5]: 572 | P8_MAL Rank (before) [6]: 1498
Sequence: YFLHFLLYDHLRWLGIRAFL

P8_MAL Rank (after) [5]: 552 | P8_MAL Rank (before) [6]: 1509
Sequence: YFLHLLLFSRPETEYN

P8_MAL Rank (after) [7]: 615 | P8_MAL Rank (before) [8]: 1508
Sequence: YFLHLLLFSRPETVYI

Rank (after) [1]: 158 | Rank (before) [2]: 1511
Sequence: YFLHSCCLAVRKPSI

P3_MAL Rank (after) [7]: 674 | P3_MAL Rank (before) [8]: 1334
Sequence: YFWHALKNALAEHEKR

Rank (after) [11]: 479 | Rank (before) [12]: 1335
Sequence: YFWNALENALAVNNDV

P3_MAL Rank (after) [9]: 750 | P3_MAL Rank (before) [10]: 1498
Sequence: YLNSGYPWRYDRLRFA

P3_MAL Rank (after) [5]: 562 | P3_MAL Rank (before) [6]: 1581
Sequence: YNFISHLHRYLVQRGV

Population: 0.00676%
Sequence: YQWRNALTAAANLSGW

Rank (after) [11]: 475 | Rank (before) [12]: 1552
Sequence: YTALTKSGVHAFRDND

P8_MAL Rank (after) [5]: 487 | P8_MAL Rank (before) [6]: 1524
Sequence: YVLHFLLFSRREPEYI
